Measurements: patent US20250207167A1, “ASPERGILLUS SP. L14-OE::LAEA2 AND APPLICATION THEREOF IN PRODUCING CYCLIC TRIPEPTIDES” (Zhejiang University of Technology, priority 2023, published 2025)
≈ marks a conversion by molar mass, not a printed value.

How the values were obtained:
[1] = tested on: Candida albicans ATCC 10231; assay: Antifungal activity against Candida albicans (serial dilution MIC); format: cell-based; details: 48 hours at 30° C., absorbance at 600 nm; for MIC: Candida albicans, ATCC10231
Description: Candida albicans ATCC 10231, as an indicator strain, is activated for 3 days at 30° C. on the Sabouraud solid medium, and then amplified for 2 days at 30° C. and 180 rpm in the Sabouraud liquid medium to obtain an indicator liquid for antifungal activity testing.
An outermost ring of a 96-well plate is filled with 100 μL of the Sabouraud liquid medium for blank culture to prevent contamination; a first well of the 96-well plate is added with samples and the indicator liquid, with a total solution volume of 200 μL and a sample concentration of 128 μg/mL in the first well. A “serial dilution method” is used to achieve sample concentrations of 64, 32, 16, 8, 4, 2, 1, 0.5, and 0.25 μg/mL respectively in subsequent wells. Each sample has three parallel controls, and is incubated for 48 hours at 30° C. Then, the absorbance of the indicator liquid is measured at 600 nm using a microplate reader, and minimum inhibitory concentrations (MIC) of the compounds are recorded. The samples are the compound I, the compound II, and the compound III, with Amphotericin B as the control.

[2] = tested on: human hepatocellular carcinoma cell line (Hep-G2); assay: SRB tumor cell growth inhibition, Hep-G2; format: cell-based; details: HepG2, 72 h, 3 days, read-out: human hepatocellular carcinoma cell line Hep-G2 growth inhibition rate %
Source text: (§1) A Sulforhodamine B (SRB) colorimetric method is used to perform in vitro growth inhibition experiments on tumor cells with the isolated monomeric compounds A human brain glioma cell line (HEB) and a human hepatocellular carcinoma cell line (Hep-G2) both from Cell Resource Center, Institute of Basic Medical Sciences ([…]), China. Tumor cells in a logarithmic growth phase are selected and digested with trypsin followed by adjusting a cell concentration to 2×10^4 cells/mL with a Roswell Park memorial institute 1640 (RPMI 1640) medium containing 10% fetal bovine serum to obtain a tumor cell suspension. Sample solutions: the compound I, the compound II, and the compound III prepared in the embodiment 3 are separately added with DMSO to prepare 200 μM of the sample solutions. Control antibiotic solution: The antibiotic 5-fluorouracil (5-FU) is diluted with DMSO to prepare 100 μM of the control antibiotic solution. The tumor cell suspensions in Table 11 are inoculated into a 96-well culture plate at 190 μL per well, and then incubated at 37° C. with 5% carbon dioxide (CO2) for 24 hours. The culture wells are divided into drug wells, control wells, and blank wells. […] The blank wells are added with 10 μL of the RPMI 1640 medium containing 10% fetal bovine serum and an equal volume of DMSO as a solvent. The 96-well culture plate is then at 37° C. with 5% CO2 for incubation for 3 days followed by removing culture medium. Then, each well of the 96-well culture plate is slightly added with 100 μL of the 50% TCA solution pre-cooled at 4° C., and then allowed to stand for 5 min, followed by moving the 96-well culture plate to 4° C. for 1 hour to fix cells to obtain a cell-fixed plate. After discarding the fixing solution from the cell-fixed plate, the wells of the cell-fixed plate are washed five times with distilled water to remove TCA and then air-dried for 1 hour to obtain a first dried plate. Each well of the first dried plate is added with 80 μL of the 0.4% SRB solution for staining at room temperature for 30 min to obtain a stained plate. After discarding the staining solution of the stained plate, the stained plate is washed five times by 1% acetic acid aqueous solution to fully remove unbound SRB and then air-dried for 1 hour to obtain a second dried plate. Each well of the second dried plate is added with 150 μL of the 10 mM Tris-based solution for dissolving, and then oscillated for 5 min on a mini shaker (Mini shaker Kylin-Bell Lab instruments) to obtain an oscillated plate. Samples from each well of the oscillated plate are taken and an OD value at 570 nm is measured for each sample by using an M5 microplate reader.

[3] = tested on: human brain glioma cell line (HEB); assay: SRB tumor cell growth inhibition, HEB; format: cell-based; details: 72 h, 3 days, read-out: human brain glioma cell line HEB growth inhibition rate %
Source text: as §1

[4] = according to literature searches; cited from earlier work
[5] = tested on: silkworms and American moths; details: against silkworms and American moths; literature; cited from earlier work
[6] = DPPH antioxidant activity test; format: biochemical; details: for Antioxidant activity IC50 value: DPPH scavenging, 37° C. half an hour
Description: 1 mg of solid DPPH is dissolved in 24 mL of methanol and then ultrasonicated for 5 min, followed by shaking thoroughly to obtain DPPH solution to ensure uniformity throughout the DPPH solution. 1 mL of the DPPH solution is taken and diluted by adding 0.5 mL of 95% methanol to obtain a diluted solution with an absorbance in a range of 0.6-1.0. The samples are added with methanol to prepare 1 mg/mL of sample solutions. The sample solutions are separately added to the DPPH solution while mixing continuously with a small start amount to obtain mixed solutions and an addition amount of the sample solutions gradually increases. Solution decolorization is observed when adding the sample solutions. When color of the mixed solutions has essentially faded, a maximum amount of the added sample solution is recorded. Based on the maximum amount, five additional amounts are set in an arithmetic sequence moving backwards. A final measurement is performed according to the arithmetic sequence, and for each amount, three parallel data points are measured. An absorbance value (A value) at each amount may be measured after placing the mixed solutions in a 37° C. oven for half an hour. An experimental antioxidant concentration serves as an x-axis and a scavenging rate serves as a y-axis, then a linear regression equation is calculated. 50% scavenging rate is substituted into the linear regression equation to obtain a corresponding x-axis value, which is a half-maximal inhibitory concentration (IC50) value. The samples are the compound I, the compound II, and the compound III, with vitamin C (Vc) as the control. The scavenging rate=((A0−A)/A0)×100; where A0 represents a value before adding the sample solutions, and A represents a value after adding the sample solutions.

Candida albicans = details: reported in literature; cited from earlier work

| Structure (SMILES) | MIC [1] [µg/mL] | Antioxidant activity IC50 value [6] [µg/mL] | inhibition at 10 µM [2] [%] | inhibition at 10 µM [3] [%] | antioxidant activity (in words) [6] | other results |
| --- | --- | --- | --- | --- | --- | --- |
| C[C@@H]1[C@H](O)[C@@H](C)/C=C/C=C/C=C/C=C/C=C/C=C/C=C/[C@H](O[C@@H]2O[C@H](C)[C@@H](O)[C@H](N)[C@@H]2O)C[C@@H]2O[C@](O)(C[C@@H](O)C[C@@H](O)[C@H](O)CC[C@@H](O)C[C@@H](O)CC(=O)O[C@H]1C)C[C@H](O)[C@H]2C(=O)O [Amphotericin B, reference compound] |  |  |  |  |  | MIC value against the Candida albicans ATCC 10231 [1]: 2 µg/mL (≈ 2.16 µM) |
| O=c1[nH]cc(F)c(=O)[nH]1 [Compound 5-FU, 5-fluorouracil, reference compound] |  |  |  |  |  | inhibition at 5 µM ([2]; positive control, 5 μM): 71.3%; inhibition at 5 µM ([3]; positive control, 5 μM): 69.5% |
| C/C=C/C=C/C=C/C(=O)N[C@H]1CCCNC(=O)[C@H](C)N(C)C(=O)[C@H](C(C)C)N(C)C1=O [Compound I, aspochracin] | > 128 | 420 | -17.9 | -19.9 | moderate antioxidant activity | mammalian toxicity [4]: extremely low mammalian toxicity; insecticidal activity [5]: recognized insecticidal activity |

The next lines start with results.

| MIC [1] [µg/mL] | Antioxidant activity IC50 value [6] [µg/mL] | Structure (SMILES) | inhibition at 10 µM [2] [%] | inhibition at 10 µM [3] [%] | antioxidant activity (in words) [6] | other results |
| --- | --- | --- | --- | --- | --- | --- |
| 32 (≈ 76.5 µM) | 400 | C/C=C/C=C/C=C/C(=O)N[C@H]1CCCNC(=O)[C@H](C)NC(=O)[C@H](C(C)C)N(C)C1=O [Compound II, JBIR-15] | 11.8 | -6.04 | moderate antioxidant activity | anti-Candida albicans activity, minimum inhibitory concentration (MIC) (Candida albicans): 30 µg/mL |
| > 128 | 430 | C/C=C/C=C/C=C/C(=O)N[C@H]1CCCCNC(=O)[C@H](C)N(C)C(=O)[C@H](C(C)C)N(C)C1=O [Compound III, sclerotiotide C] | 21.1 | -13.7 | moderate antioxidant activity |  |
|  | 9 | O=C1O[C@H]([C@@H](O)CO)C(O)=C1O [Vc, vitamin C, reference compound] |  |  |  |  |
